A short description of data set [1]: Solubility investigations in water. It counts as physicochemical. The conditions noted are these: for Total amount of substance that could be dissolved: in 2 ml of water at 20° C. to 25° C.; for Time to go into solution: portions of 50 to 100 mg stirred into 2.0 ml of water at room temperature. The procedure:
The substance was introduced with stirring into 2.0 ml of water at room temperature in portions of 50 to 100 mg. It went into solution in the course of a few minutes with initial clumping. In this way, a total of up to 500 mg of substance could be dissolved in 2 ml of water at 20° C to 25° C.
100 mg of the substance were introduced into 2.0 ml of water, a readily stirrable suspension being formed. […] On warming the suspension to 35° C. to 37° C., the substance went into solution within 20 minutes.
The substance was introduced with stirring into 2.0 ml of water at room temperature in portions of 50 to 100 mg. After introduction, the substance was initially present as a granular, readily stirrable solid that then went into solution in the course of a few minutes. In this way, a total of up to 360 mg of substance could be dissolved in 2 ml of water at 20° C. to 25° C.
The substance was introduced with stirring into 2.0 ml of water at room temperature in portions of 50 to 100 mg. It went into solution in the course of a few minutes with initial clumping. In this way, a total of up to 620 mg of substance could be dissolved in 2 ml of water at 20° C. to 25° C.

A short description of data set [2]: Hygroscopicity investigations: water vapor sorption (DVS-1 Dynamic Vapour Sorption Analyser). The data set is classed as physicochemical. The conditions noted are these: 25° C., equilibrium. The method, then: The water vapor sorption of the crystal modifications according to the invention was investigated at a temperature of 25° C. on substance samples of about 12 to 16 mg using a DVS-1 Dynamic Vapour Sorption Analyser from Surface Measurement Systems. The measurements were carried out in a nitrogen atmosphere whose relative humidity was altered stepwise. The weight of the sample was recorded at each relative humidity after establishment of the equilibrium, which is when a change in weight of the sample no longer took place. For a series of increasing relative humidities, the water contents of the substance samples, which were determined from the change in weight compared with the starting weights, are indicated in percent.

We go through 4 molecules from patent publication US6723751B1, “Crystalline forms of the sodium salt of 5-chloro-2-methoxy-N-(2-(4-methoxy-3-methylaminothiocarbonylaminosulfonylpenyl)ethyl)benzamide” (Aventis Pharma Deutschland GmbH, priority 1999, dated 2004).

Regarding `CNC(=S)[N-]S(=O)(=O)c1cc(CCNC(=O)c2cc(Cl)ccc2OC)ccc1OC.[Na+]` [Crystal Modification 4, sodium salt of 5-chloro-2-methoxy-N-(2-(4-methoxy-3-methylaminothiocarbonylaminosulfonylphenyl)ethyl)benzamide], in data set [1], the “Total amount of substance that could be dissolved” value (shortened to “Total amount”) is given as “up to 620 mg” and the “Time to go into solution” value was “a few minutes”.
As to `CNC(=S)[N-]S(=O)(=O)c1cc(CCNC(=O)c2cc(Cl)ccc2OC)ccc1OC.[Na+]` [Crystal Modification 1, sodium salt of 5-chloro-2-methoxy-N-(2-(4-methoxy-3-methylaminothiocarbonylaminosulfonylphenyl)ethyl)benzamide], the “Total amount” value in data set [1] is “up to 500 mg”. Further, in data set [1], the “Time to go into solution” value was “a few minutes”. The Water content in data set [2] (relative humidity 18.4 %) was 0.30%; in data set [2] (relative humidity 39.6 %), 0.65%; in data set [2] (relative humidity 61.0 %), 1.39%; in data set [2] (relative humidity 81.1 %), 2.04%; in data set [2] (relative humidity 91.0 %) it was 5.72%.
Regarding `CNC(=S)[N-]S(=O)(=O)c1cc(CCNC(=O)c2cc(Cl)ccc2OC)ccc1OC.[Na+]` [Crystal Modification 3, sodium salt of 5-chloro-2-methoxy-N-(2-(4-methoxy-3-methylaminothiocarbonylaminosulfonylphenyl)ethyl)benzamide], in data set [1], the “Total amount” value is “up to 360 mg”. Also, the “Time to go into solution” value in data set [1] is given as “a few minutes”. For the same molecule, the Water content in data set [2] (relative humidity 18.7 %) came to 0.06%; in data set [2] (relative humidity 40.1 %) it was 0.21%; in data set [2] (relative humidity 61.4 %), 0.38%; in data set [2] (relative humidity 81.3 %), 0.65%; in data set [2] (relative humidity 91.0 %) it was 0.79%.
Regarding `CNC(=S)[N-]S(=O)(=O)c1cc(CCNC(=O)c2cc(Cl)ccc2OC)ccc1OC.[Na+]` [Crystal Modification 2, sodium salt of 5-chloro-2-methoxy-N-(2-(4-methoxy-3-methylaminothiocarbonylaminosulfonylphenyl)ethyl)benzamide], the “State of solution on cooling” value in data set [1] (100 mg in 2.0 ml of water, cooled from 35° C. to 37° C. to 20° C. to 25° C.) is reported as “remained clearly dissolved”. Also, in data set [1] (100 mg in 2.0 ml of water, suspension warmed to 35° C. to 37° C.), the “Time to go into solution on warming” value was ≤ 20 min. Also, the “Dissolution of 100 mg in 2.0 ml of water” value in data set [1] (after stirring at 20° C. to 25° C. for 2 h) is “a clear solution was still not formed”. In addition, the Water content came out at 0.04% in data set [2] (relative humidity 18.5 %); 0.06% in data set [2] (relative humidity 39.9 %); 0.08% in data set [2] (relative humidity 61.5 %); 0.10% in data set [2] (relative humidity 81.9 %); 0.13% in data set [2] (relative humidity 91.7 %).
